Read-outs that look alike come from different tables or passages of the source. Blank lines part the entries; values can stand above or below the compound they belong to.
Assays:
Type in all cases: cell-based, human
Kasumi-1 = experiment: MI-219 apoptosis induction in AML cell lines; details: Kasumi-1 AML cell line, p53 (exon5-9) mut
Procedure: (§1) Next—the ability of MI-219 to induce apoptosis in 19 AML-derived cell lines was assessed.

KG-1 = experiment: MI-219 apoptosis induction in AML cell lines; details: KG-1 AML cell line, p53 (exon5-9) mut
Procedure: as §1

OCI-AML-3 = experiment: MI-219 apoptosis induction in AML cell lines; details: OCI-AML-3 AML cell line, p53 wt
Procedure: as §1

ML-2 = experiment: MI-219 apoptosis induction in AML cell lines; details: ML-2 AML cell line, p53 wt
Procedure: as §1

Kasumi-3 = experiment: MI-219 apoptosis induction in AML cell lines; details: Kasumi-3 AML cell line, p53 (exon5-9) mut
Procedure: as §1

HL60 = experiment: MI-219 apoptosis induction in AML cell lines; details: HL60 AML cell line, p53 deleted
Procedure: as §1

AP-1060 = experiment: MI-219 apoptosis induction in AML cell lines; details: AP-1060 AML cell line, p53 wt
Procedure: as §1

AML-193 = experiment: MI-219 apoptosis induction in AML cell lines; details: AML-193 AML cell line, p53 (exon5-9) mut
Procedure: as §1

MOLM-13 = experiment: MI-219 apoptosis induction in AML cell lines; details: MOLM-13 AML cell line, p53 wt
Procedure: as §1

OCI-AML-2 = experiment: MI-219 apoptosis induction in AML cell lines; details: OCI-AML-2 AML cell line, p53 wt
Procedure: as §1

MOLM-16 = experiment: MI-219 apoptosis induction in AML cell lines; details: MOLM-16 AML cell line, p53 (exon5-9) mut
Procedure: as §1

SKM-1 = experiment: MI-219 apoptosis induction in AML cell lines; details: SKM-1 AML cell line, p53 (exon5-9) mut
Procedure: as §1

ME-1 = experiment: MI-219 apoptosis induction in AML cell lines; details: ME-1 AML cell line, p53 (exon5-9) mut
Procedure: as §1

MUTZ-2 = experiment: MI-219 apoptosis induction in AML cell lines; details: MUTZ-2 AML cell line, p53 wt
Procedure: as §1

GF-D8 = experiment: MI-219 apoptosis induction in AML cell lines; details: GF-D8 AML cell line, p53 (exon5-9) mut
Procedure: as §1

MONO-MAC-6 = experiment: MI-219 apoptosis induction in AML cell lines; details: MONO-MAC-6 AML cell line, p53 (exon5-9) mut
Procedure: as §1

OCI-M2 = experiment: MI-219 apoptosis induction in AML cell lines; details: OCI-M2 AML cell line, p53 (exon5-9) mut
Procedure: as §1

OCI-AML-5 = experiment: MI-219 apoptosis induction in AML cell lines; details: OCI-AML-5 AML cell line, p53 wt
Procedure: as §1

SIG-M5 = experiment: MI-219 apoptosis induction in AML cell lines; details: SIG-M5 AML cell line, p53 wt
Procedure: as §1

[1] = test system: p53 expression in resistant AML blasts with absent p53 expression; experiment: Ex vivo AML blasts epigenetic and MDM2 inhibitor apoptosis assay; details: alone or in combination, followed by MI-219; four AML cases with absent or very low p53 mRNA
Procedure: Blasts enriched to >90% purity using methods detailed above were incubated with either DMSO or 0.5 μM 5-azacytidine (A2385, Sigma-Aldrich, Saint Louis, Mo.) for 48 hours (with 5-azacytidine replenished every 24 hours). During the last 12 hours of incubation, blasts were further aliquoted and treated with either 0.3 μM Trichostatin A (#9950, Cell Signaling Technology, Danvers, Mass.) or DMSO. At the end of the 48 hour incubation, each of the four differentially treated subgroups of blasts were treated with MI-219 at final concentrations of 0, 2.5, 5 and 10 μM for 40 hours, followed by annexin-V/PI FACS-based analysis of apoptosis. Aliquots of blasts in parallel were cultured in a 48-well plate at 10^6 cells per well in 1 ml of medium and treated with 10 μM MI-219 or solvent for 8 hours. Blasts were harvested, lysed and protein prepared for immunoblotting as described.
Attempting to obtain evidence for epigenetic p.53 gene silencing in AML with absent p53 mRNA expression, four AML cases were selected based on the availability of cryopreserved cells with absent or very low p53 mRNA for further analysis and treated purified blasts with trichostatin A and azacytidine (alone or in combination) followed by treatment with MI-219. Readouts for these experiments was the fraction of blasts undergoing apoptosis and posttreatment p53 protein levels. […]

AML blasts = experiment: Ex vivo AML blasts MDM2 inhibitor apoptosis assay (annexin-V/PI FACS)
Procedure: Blasts enriched to >90% purity using methods detailed above were incubated in serum-supplemented RPMI medium at 2.5×10^5 cells in 100 μl final volume in the presence of various concentrations of the MDM2 inhibitors MI-219 and MI-63 (range 0.625-20 μM) for 40 hours. Apoptosis and necrosis was measured for each treated blast aliquot using annexin-V/PI FACS-based readouts and values subsequently normalized to spontaneous death rates in untreated parallel cultures according to the formula (% alive=% mean alive treated samples/% mean alive paired non-treated samples).
To evaluate the efficacy of MDM2 inhibitor-mediated apoptotic cell kill in AML blasts ex vivo, blasts from 109 AML specimens (97 with wild type p53 and 12 with mutant p53 by exon 5-9 exon sequence analysis) were purified to >90% purity and cell aliquots were incubated for 40 hours with escalating concentrations of the MDM2 inhibitors MI-219 (N=109) and MI-63 (N=60). The apoptotic cell fraction in treated samples was subsequently quantitated through annexin V-PI-based FACS analysis and normalized to measurements in paired untreated cells.

p53 = p53 immunoblot of AML cell lines after MI-219 treatment
[2] = ex vivo, blasts from 109 patients

Compound: CC(/C=C/C(=O)NO)=C\[C@@H](C)C(=O)c1ccc(N(C)C)cc1 [Trichostatin A]
p53 expression after treatment [1]: Does Not Induce p53 Expression

Compound: Nc1ncn([C@@H]2O[C@H](CO)[C@@H](O)[C@H]2O)c(=O)n1 [Azacytidine, 5-azacytidine]
p53 expression after treatment [1]: Does Not Induce p53 Expression

Compound: COc1ccc(C2=N[C@@H](c3ccc(Cl)cc3)[C@@H](c3ccc(Cl)cc3)N2C(=O)N2CCNC(=O)C2)c(OC(C)C)c1 [Nutlin, reference compound]
IC50 (Kasumi-1): > 10 µM
IC50 (KG-1): > 10 µM
IC50 (OCI-AML-3): > 10 µM
IC50 (ML-2): 10.4 µM
IC50 (Kasumi-3): > 10 µM
IC50 (HL60): > 10 µM
IC50 (AP-1060): 6.77 µM
IC50 (AML-193): > 10 µM
IC50 (MOLM-13): 4.04 µM
IC50 (OCI-AML-2): 7.22 µM
IC50 (MOLM-16): > 10 µM
IC50 (SKM-1): > 10 µM
IC50 (ME-1): > 10 µM
IC50 (MUTZ-2): 0.951 µM
IC50 (GF-D8): > 10 µM
IC50 (MONO-MAC-6): > 10 µM
IC50 (OCI-M2): > 10 µM
IC50 (OCI-AML-5): > 10 µM
IC50 (SIG-M5): 4.73 µM

Second part, led by results:

IC50 (Kasumi-1): > 10 µM
IC50 (KG-1): > 10 µM
IC50 (OCI-AML-3): > 10 µM
IC50 (ML-2): 7.47 µM
IC50 (Kasumi-3): > 10 µM
IC50 (HL60): > 10 µM
IC50 (AP-1060): 4.03 µM
IC50 (AML-193): > 10 µM
IC50 (MOLM-13): 2.85 µM
IC50 (OCI-AML-2): 4.74 µM
IC50 (MOLM-16): > 10 µM
IC50 (SKM-1): > 10 µM
IC50 (ME-1): > 10 µM
IC50 (MUTZ-2): 1.17 µM
IC50 (GF-D8): > 10 µM
IC50 (MONO-MAC-6): > 10 µM
IC50 (OCI-M2): > 10 µM
IC50 (OCI-AML-5): > 10 µM
IC50 (SIG-M5): 3.8 µM
Compound: CC(C)(C)C[C@H]1N[C@@H](C(=O)NCCN2CCOCC2)[C@H](c2cccc(Cl)c2F)[C@@]12C(=O)Nc1cc(Cl)ccc12 [MI-63]

fraction of AML cases with wild type p53 with IC50>10 μM (AML blasts; 21/97 cases): 22%
fraction of AML cases with wild type p53 exon 5-9 that were very sensitive (IC50<2 μM) (AML blasts; 32/97 cases): 33%
fraction of AML cases with wild type p53 with IC50>5 μM (AML blasts; 32/97 cases): 33%
fraction of AML cases with wild type p53 exon 5-9 that were sensitive (IC50>2 μM to <5 μM) (AML blasts; 33/97 cases): 34%
fraction of AML samples with FLT3-ITD with IC50 <2 μM (AML blasts; FLT3-ITD, N=19): 58%
fraction of AML samples with FLT3-ITD with IC50 <5 μM (AML blasts; FLT3-ITD, N=19): 84%
IC50 (AML blasts; all AML with wild type p53 exon 5-9, read-out: threshold IC50 value at the 25th percentile): 1.78 µM
IC50 (AML blasts; all AML with wild type p53 exon 5-9, read-out: threshold IC50 value at the 50th percentile): 3.2 µM
IC50 (AML blasts; previously untreated AML cases, exclusive of p53 exon 5-9 mutations, read-out: mean IC50): 6.6 µM
IC50 (AML blasts; primary AML, exclusive of cases with p53 exon 5-9 mutations, 40 hours, read-out: mean IC50): 6.1 µM
IC50 (AML blasts; relapsed AML cases, exclusive of p53 exon 5-9 mutations, read-out: mean IC50): 4.4 µM
IC50 (AML blasts; secondary AML, exclusive of cases with p53 exon 5-9 mutations, 40 hours, read-out: mean IC50): 7.9 µM
IC50 (AML blasts; tAML, exclusive of cases with p53 exon 5-9 mutations, 40 hours, read-out: mean IC50): 4.8 µM
IC50 (Kasumi-1): > 20 µM
IC50 (KG-1): > 20 µM
IC50 (OCI-AML-3): 18.2 µM
IC50 (ML-2): 7.04 µM
IC50 (Kasumi-3): > 20 µM
IC50 (HL60): > 20 µM
IC50 (AP-1060): 4.22 µM
IC50 (AML-193): > 20 µM
IC50 (MOLM-13): 2.66 µM
IC50 (OCI-AML-2): 5.25 µM
IC50 (MOLM-16): > 20 µM
IC50 (SKM-1): > 20 µM
IC50 (ME-1): > 20 µM
IC50 (MUTZ-2): 1.28 µM
IC50 (GF-D8): > 20 µM
IC50 (MONO-MAC-6): > 20 µM
IC50 (OCI-M2): > 20 µM
IC50 (OCI-AML-5): 13.8 µM
IC50 (SIG-M5): 3.44 µM
Compound: CC(C)(C)C[C@H]1N[C@@H](C(=O)NCC[C@H](O)CO)[C@H](c2cccc(Cl)c2)[C@@]12C(=O)Nc1cc(Cl)c(F)cc12.Cl [MI-219]
fraction of AML cases with unmutated p53 with primary resistance (AML blasts; [2]): ~30%
sensitivity of AML cases with mutated p53 (AML blasts; [2]): resistant
p53 immunoblot (MI-219 10 μM) (p53; AP-1060): Inducible
p53 immunoblot (MI-219 10 μM) (p53; GF-D8): non-inducible
p53 immunoblot (MI-219 10 μM) (p53; Kasumi-1): non-inducible
p53 immunoblot (MI-219 10 μM) (p53; Kasumi-3): non-inducible
p53 immunoblot (MI-219 10 μM) (p53; ML-2): Inducible
p53 immunoblot (MI-219 10 μM) (p53; MOLM-13): Inducible
p53 immunoblot (MI-219 10 μM) (p53; MOLM-16): non-inducible
p53 immunoblot (MI-219 10 μM) (p53; MONO-MAC-6): non-inducible
p53 immunoblot (MI-219 10 μM) (p53; MUTZ-2): Inducible
p53 immunoblot (MI-219 10 μM) (p53; OCI-AML-2): Inducible
p53 immunoblot (MI-219 10 μM) (p53; OCI-AML-3): Inducible
p53 immunoblot (MI-219 10 μM) (p53; OCI-AML-5): Inducible
p53 immunoblot (MI-219 10 μM) (p53; OCI-M2): non-inducible
p53 immunoblot (MI-219 10 μM) (p53; SIG-M5): Inducible
p53 immunoblot (MI-219 10 μM) (p53; SKM-1): non-inducible

Reference: patent US20110251252A1, “BIOMARKERS FOR MDM2 INHIBITORS FOR USE IN TREATING DISEASE” (THE REGENTS OF THE UNIVERSITY OF MICHIGAN, priority 2010, published 2011)
